Laboratory results as given in patent US20240018125A1, “CYCLIC ISOTHIOUREA DERIVATIVES AS CXCR4 MODULATORS” (ERMIUM THERAPEUTICS, priority 2020, published 2024).
Where a name gives a salt, the structure may show the parent alone.

Compared with `CC1(c2ccccc2)CN=C(SCC2=CSC3=NCc4ccccc4CN23)N1` (stereo not shown) (as salt: hydrochloride) [Example 30, 3-(((5-methyl-5-phenyl-4,5-dihydro-1H-imidazol-2-yl)thio)methyl)-5,10-dihydrobenzo[e]thiazolo[3,2-a][1,3]diazepine dihydrochloride], `C1=C(CSC2=NCc3ccccc3N2)N2Cc3ccccc3CN=C2S1` (as salt: hydrochloride) [Example 11, 3-(((3,4-dihydroquinazolin-2-yl)thio)methyl)-5,10-dihydrobenzo[e]thiazolo[3,2-a][1,3]diazepine dihydrochloride] is lower in melting point: 195 to 200 °C for the first, 189 to 193 °C for the second.

`C1=C(CSC2=NCc3ccccc3N2)N2CC(C3CCCCC3)N=C2S1` (stereo not shown) (as salt: hydrochloride) [Example 15, 6-cyclohexyl-3-(((3,4-dihydroquinazolin-2-yl)thio)methyl)-5,6-dihydroimidazo[2,1-b]thiazole dihydrochloride] and `C1=C(CSC2=NCc3ccccc3N2)N2C(=N[C@H]3CCCC[C@@H]32)S1` (relative stereo) (as salt: hydrochloride) [Example 13, trans-3-(((3,4-dihydroquinazolin-2-yl)thio)methyl)-4a,5,6,7,8,8a-hexahydrobenzo[4,5]imidazo[2,1-b]thiazole dihydrochloride] cannot be ordered by melting point: 235 to 242 °C for the first, 240 to 244 °C for the second.

First: CC1(C)c2ccccc2N=C2SC=C(CSC3=NCc4ccccc4N3)N21 (as salt: hydrochloride) [Example 95, 3-(((1,4-dihydroquinazolin-2-yl)thio)methyl)-5,5-dimethyl-5H-thiazolo[2,3-b]quinazoline dihydrochloride]
Second: C1=C(CSC2=NCc3ccccc3N2)N2CCc3ccccc3N=C2S1 (as salt: hydrochloride) [Example 35, 3-(((3,4-dihydroquinazolin-2-yl)thio)methyl)-5,6-dihydrobenzo[d]thiazolo[3,2-a][1,3]diazepine dihydrochloride]
The melting point of the first is lower: 180 to 185 °C for the first, 248 to 249 °C for the second.

Compared with `C1=C(CSC2=NCc3ccccc3N2)N2CC(Cc3ccccc3)N=C2S1` (stereo not shown) (as salt: hydrochloride) [Example 65, 6-benzyl-3-(((3,4-dihydroquinazolin-2-yl)thio)methyl)-5,6-dihydroimidazo[2,1-b]thiazole dihydrochloride], `C1=C(CSC2=NCCc3ccccc3N2)N2CC(Cc3ccccc3)N=C2S1` (stereo not shown) (as salt: hydrochloride) [Example 88, 6-benzyl-3-(((4,5-dihydro-1H-benzo[d][1,3]diazepin-2-yl)thio)methyl)-5,6-dihydroimidazo[2,1-b]thiazole dihydrochloride] is lower in melting point: 142 to 148 °C for the first, 50 to 53 °C for the second.

First: CCCCN1Cc2ccccc2N=C1SCC1=CSC2=NC(Cc3ccccc3)CN12 (stereo not shown) (as salt: hydrochloride) [Example 93, 6-benzyl-3-(((3-butyl-3,4-dihydroquinazolin-2-yl)thio)methyl)-5,6-dihydroimidazo[2,1-b]thiazole dihydrochloride]
Second: CC1(C)N=C(SCC2=CSC3=NC(Cc4ccccc4)CN23)Nc2ccccc21 (stereo not shown) (as salt: hydrochloride) [Example 87, 6-benzyl-3-(((4,4-dimethyl-1,4-dihydroquinazolin-2-yl)thio)methyl)-5,6-dihydroimidazo[2,1-b]thiazole dihydrochloride]
The melting point of the first is lower: 40 to 44 °C for the first, 50 to 52 °C for the second.

First: CN1CCCC1CSC1=NCC(Cc2ccccc2)N1 (stereo not shown) (as salt: hydrochloride) [Example 53, 5-benzyl-2-(((1-methylpyrrolidin-2-yl)methyl)thio)-4,5-dihydro-1H-imidazole dihydrochloride]
Second: CC1CCN(CCSC2=NCc3ccccc3N2)C1 (stereo not shown) (as salt: hydrochloride) [Example 138, 2-((2-(3-methylpyrrolidin-1-yl)ethyl)thio)-1,4-dihydroquinazoline dihydrochloride]
The melting point of the first is lower: 70 to 80 °C for the first, 178 to 182 °C for the second.

First: C1=C(CSC2=NCc3ccccc3N2)N2C(=N[C@H](c3ccccc3)[C@H]2c2ccccc2)S1 (relative stereo) (as salt: hydrochloride) [Example 16, trans-3-(((3,4-dihydroquinazolin-2-yl)thio)methyl)-5,6-diphenyl-5,6-dihydroimidazo[2,1-b]thiazole dihydrochloride]
Second: C1=C(CSC2=NCc3ccccc3N2)N2CC(c3ccccc3)N=C2S1 (stereo not shown) (as salt: hydrochloride) [Example 120, 3-(((1,4-dihydroquinazolin-2-yl)thio)methyl)-6-phenyl-5,6-dihydroimidazo[2,1-b]thiazole dihydrochloride]
The melting point of the first is lower: 175 to 185 °C for the first, 185 to 190 °C for the second.

First: CC1(C)CN2C(CSC3=NCc4ccccc4CN3)=CSC2=N1 (as salt: hydrochloride) [Example 7, 3-(((2,5-dihydro-1H-benzo[e][1,3]diazepin-3-yl)thio)methyl)-6,6-dimethyl-5,6-dihydroimidazo[2,1-b]thiazole dihydrochloride]
Second: Fc1ccc(CC2CN3C(CSC4=NCc5ccccc5N4)=CSC3=N2)cc1 (stereo not shown) (as salt: hydrochloride) [Example 196, 3-(((1,4-dihydroquinazolin-2-yl)thio)methyl)-6-(4-fluorobenzyl)-5,6-dihydroimidazo[2,1-b]thiazole dihydrochloride]
The melting point of the first is lower: 127 to 134 °C for the first, 155 to 160 °C for the second.

First: C1=C(CSC2=NCc3ccccc3N2)N2C[C@H](Cc3c[nH]c4ccccc34)N=C2S1 (as salt: hydrochloride) [Example 109, (S)-6-((1H-indol-3-yl)methyl)-3-(((1,4-dihydroquinazolin-2-yl)thio)methyl)-5,6-dihydroimidazo[2,1-b]thiazole dihydrochloride]
Second: Fc1ccc2c(c1)NC(SCC1=CSC3=NC(Cc4ccccc4)CN13)=NC2 (stereo not shown) (as salt: hydrochloride) [Example 89, 6-benzyl-3-(((7-fluoro-1,4-dihydroquinazolin-2-yl)thio)methyl)-5,6-dihydroimidazo[2,1-b]thiazole dihydrochloride]
The melting point of the first is higher: 180 to 190 °C for the first, 125 to 130 °C for the second.

Compound `CC1(C)N=C(SCC2=CSC3=Nc4cccc(F)c4CN23)Nc2ccccc21` (as salt: hydrochloride) [Example 73, 3-(((4,4-dimethyl-1,4-dihydroquinazolin-2-yl)thio)methyl)-6-fluoro-5H-thiazolo[2,3-b]quinazoline dihydrochloride] has a melting point of 190 to 194 °C.

For `Fc1cccc2c1CN=C(SCC1=CSC3=NCc4ccccc4CN13)N2` (as salt: hydrochloride) [Example 23, 3-(((5-fluoro-1,4-dihydroquinazolin-2-yl)thio)methyl)-5,10-dihydrobenzo[e]thiazolo[3,2-a][1,3]diazepine dihydrochloride], the melting point was > 240 °C.
With `C1=C(CSC2=NCc3ccccc3N2)N2Cc3ccccc3N=C2S1` (as salt: hydrochloride) [Example 12, 3-(((1,4-dihydroquinazolin-2-yl)thio)methyl)-5H-thiazolo[2,3-b]quinazoline dihydrochloride] the melting point was > 250 °C.
In the case of `Fc1ccc2c(c1)N=C1SC=C(CSC3=NCc4ccccc4N3)N1C2` (as salt: hydrochloride) [Example 82, 3-(((1,4-dihydroquinazolin-2-yl)thio)methyl)-8-fluoro-5H-thiazolo[2,3-b]quinazoline dihydrochloride], the melting point is reported as > 250 °C.
